This note sets out measurements from publication PMC8294059, “Identification and Immune Assessment of T Cell Epitopes in Five Plasmodium falciparum Blood Stage Antigens to Facilitate Vaccine Candidate Selection and Optimization” (Frontiers in Immunology, 2021).

For one assay, the target named is HLA-A*0101 (Homo sapiens, UniProt P04439, A114D/A174V/A182V/D101N/D185E/E176A/E190D/L180R/Q94H/R68K/S129P/T187R/V100A/V91M/W191G). Briefly: biochemical. Type of assay: binding. Conditions: allele A*0101, fluorescence polarization competition; for IC50: read-out: IC50 (nM), in vitro HLA binding affinity. The method in brief: (§1)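 Cell-free competition assay: HLA heat-treated 53°C for 15 min to strip endogenous peptides, then mixed with fluorescent high-affinity control peptide and test peptides for 72 h to equilibrium. Displacement read by fluorescence polarization as percent inhibition; IC50 derived from a concentration range.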
(In fluorescence polarisation assays a small probe gives low polarisation when free and higher when bound to something large.)

A further assay addresses HLA-A*0301 (Homo sapiens, UniProt P04439). Briefly: biochemical. It counts as binding. An outline of the steps: as §1
For a further assay, the target named is HLA-A*2402 (Homo sapiens, UniProt P04439, D101N/D140Y/D185E/E176V/E190D/F33S/G103R/G107R/I119L/I121M/I306V/K335N/L105A/L180Q/L300P/N151K/N90K/Q86E/Q94H/R106L/R138H/R89G/T104I/T345S/V100E/W191G/Y123F). In words: In vitro class I HLA binding assay (fluorescence polarization competition). Conditions: allele A*2402; fluorescence polarization competition; read-out: IC50 (nM), in vitro HLA binding affinity. An outline of the steps: as §1

The next assay has as its target HLA-A*0201 (Homo sapiens, UniProt P04439, D140Y/D185E/D98H/E176V/E277Q/G131W/G231S/I119V/I121R/I166T/I218V/L300P/L318F/N151K/N90K/P208A/P217A/Q86G/Q94H/R138H/R169H/T345S). The description is as above. Conditions: allele A*0201; fluorescence polarization competition; read-out: IC50 (nM), in vitro HLA binding affinity. An outline of the steps: as §1
Where [1] appears, read: allele A*0301, fluorescence polarization competition, read-out: IC50 (nM), in vitro HLA binding affinity.
[2] abbreviates: allele A*0301, fluorescence polarization competition.

Where two headings read alike, the source gives them in different places. Where a SMILES comes first, the peptide text is derived from it.

With `CC[C@H](C)[C@H](NC(=O)[C@H](CO)NC(=O)[C@@H](N)CC(N)=O)C(=O)N[C@@H](Cc1ccc(O)cc1)C(=O)N[C@@H](Cc1c[nH]cn1)C(=O)N[C@@H](CCCCN)C(=O)N[C@@H](CO)C(=O)N[C@@H](CO)C(=O)N[C@H](C(=O)N[C@@H](Cc1ccc(O)cc1)C(=O)O)[C@@H](C)O` [RH5_191] (H-NSIYHKSSTY-OH), the “IC50 (nM), in vitro HLA binding affinity” value on HLA-A*0101 is “Non-Binder”. The IC50 (in general, the point on the concentration scale where inhibition reaches its midpoint) on HLA-A*0301 (setting [1]) turned out to be 101000 nM.

As for `CC[C@H](C)[C@H](NC(=O)[C@H](Cc1ccccc1)NC(=O)[C@@H](N)CO)C(=O)N[C@@H](CCCCN)C(=O)N[C@@H](CCCCN)C(=O)N[C@@H](Cc1ccc(O)cc1)C(=O)N[C@@H](CO)C(=O)N[C@H](C(=O)N[C@@H](Cc1ccccc1)C(=O)O)C(C)C` [RH5_105] (H-SFIKKYSVF-OH), the IC50 at HLA-A*2402 was determined as 38.3 nM.

Regarding `CC(C)C[C@H](NC(=O)[C@@H]1CCCN1C(=O)[C@H](Cc1ccc(O)cc1)NC(=O)[C@@H](N)CCC(=O)O)C(=O)N[C@@H](Cc1c[nH]cn1)C(=O)N[C@@H](CCC(N)=O)C(=O)N[C@@H](CCC(=O)O)C(=O)N[C@@H](Cc1c[nH]cn1)C(=O)N[C@H](C(=O)N[C@@H](Cc1ccc(O)cc1)C(=O)O)[C@@H](C)O` [AMA1_052] (H-EYPLHQEHTY-OH), the IC50 on HLA-A*2402 turned out to be 999 nM.

For the compound `CC(C)C[C@H](NC(=O)[C@H](Cc1c[nH]cn1)NC(=O)[C@H](CCCCN)NC(=O)[C@H](Cc1ccc(O)cc1)NC(=O)[C@H](Cc1ccc(O)cc1)NC(=O)[C@H](CC(=O)O)NC(=O)[C@H](CC(C)C)NC(=O)[C@H](Cc1ccccc1)NC(=O)[C@@H](N)[C@@H](C)O)C(=O)O` [RH5_180] (H-TFLDYYKHL-OH), the IC50 at HLA-A*2402 amounted to 215 nM.

Turning to `CC[C@H](C)[C@H](N)C(=O)N[C@@H](Cc1ccccc1)C(=O)N[C@@H](Cc1ccccc1)C(=O)N[C@@H](CC(N)=O)C(=O)N[C@@H](CC(N)=O)C(=O)N[C@@H](CCC(=O)O)C(=O)N[C@@H](CC(N)=O)C(=O)N[C@@H](CO)C(=O)N[C@H](C(=O)O)[C@@H](C)CC` [CYRPA_305] (H-IFFNNENSI-OH), the IC50 at HLA-A*2402 turned out to be 56.9 nM.

Regarding `CSCC[C@H](NC(=O)[C@@H](N)CC(=O)O)C(=O)N[C@@H](CCCCN)C(=O)N[C@@H](CC(N)=O)C(=O)N[C@@H](Cc1ccc(O)cc1)C(=O)NCC(=O)N[C@H](C(=O)N[C@@H](CC(N)=O)C(=O)N[C@@H](CC(C)C)C(=O)N[C@@H](Cc1ccccc1)C(=O)O)[C@@H](C)O` [RH5_331] (H-DMKNYGTNLF-OH), the IC50 on HLA-A*2402 came to 5310 nM.

For `CC(C)C[C@H](NC(=O)[C@H](Cc1ccc(O)cc1)NC(=O)[C@@H](N)CCC(N)=O)C(=O)N[C@@H](CCCCN)C(=O)N[C@@H](CC(=O)O)C(=O)NCC(=O)NCC(=O)N[C@@H](Cc1ccccc1)C(=O)N[C@@H](C)C(=O)N[C@@H](Cc1ccccc1)C(=O)O` [AMA1_174] (H-QYLKDGGFAF-OH), the IC50 on HLA-A*2402 is 41.9 nM.

With `CC[C@H](C)[C@H](NC(=O)[C@H](Cc1ccccc1)NC(=O)[C@H](CCCCN)NC(=O)[C@H](CCCCN)NC(=O)[C@H](Cc1c[nH]cn1)NC(=O)[C@H](Cc1ccccc1)NC(=O)[C@@H]1CCCN1)C(=O)N[C@@H](CO)C(=O)N[C@@H](Cc1ccccc1)C(=O)N[C@@H](Cc1ccccc1)C(=O)O` [CYRPA_004] (H-PFHKKFISFF-OH), the IC50 on HLA-A*2402 came out at 35.6 nM.

For the compound `CSCC[C@H](NC(=O)[C@H](CCSC)NC(=O)[C@@H](N)CCCCN)C(=O)N[C@@H](CC(=O)O)C(=O)N[C@@H](CCC(=O)O)C(=O)N[C@@H](Cc1ccc(O)cc1)C(=O)N[C@@H](CC(N)=O)C(=O)N[C@H](C(=O)N[C@@H](CCCCN)C(=O)N[C@@H](CCCCN)C(=O)O)[C@@H](C)O` [RH5_302] (H-KMMDEYNTKK-OH), the IC50 was 511000 nM on HLA-A*0201 and 8480 nM at HLA-A*0301 (setting [1]).

With `C[C@@H](O)[C@H](NC(=O)[C@@H](N)CO)C(=O)N[C@@H](CS)C(=O)N[C@@H](Cc1ccc(O)cc1)C(=O)NCC(=O)N[C@@H](CC(N)=O)C(=O)N[C@@H](CCCNC(=N)N)C(=O)N[C@@H](Cc1ccccc1)C(=O)N[C@@H](CC(N)=O)C(=O)N[C@@H](Cc1ccc(O)cc1)C(=O)O` [RIPR_0648] (H-STCYGNRFNY-OH), at HLA-A*0101, the IC50 was 54000 nM. Also, the “IC50 (nM), in vitro HLA binding affinity” value on HLA-A*0301 (setting [2]) is listed as “Non-binder”.

For `CC(C)C[C@H](NC(=O)[C@H](Cc1c[nH]cn1)NC(=O)[C@H](CCCCN)NC(=O)[C@H](Cc1ccc(O)cc1)NC(=O)[C@H](Cc1ccc(O)cc1)NC(=O)[C@H](CC(=O)O)NC(=O)[C@H](CC(C)C)NC(=O)[C@@H](N)Cc1ccccc1)C(=O)N[C@@H](CO)C(=O)N[C@@H](Cc1ccc(O)cc1)C(=O)O` [RH5_181] (H-FLDYYKHLSY-OH), the IC50 on HLA-A*0101 came out at 646 nM. For the same compound, at HLA-A*0301 (setting [2]), the “IC50 (nM), in vitro HLA binding affinity” value is reported as “Non-Binder”.

`CC[C@H](C)[C@H](NC(=O)[C@@H](N)CO)C(=O)N[C@@H](Cc1ccc(O)cc1)C(=O)N[C@@H](Cc1c[nH]cn1)C(=O)N[C@@H](CCCCN)C(=O)N[C@@H](CO)C(=O)N[C@@H](CO)C(=O)N[C@H](C(=O)N[C@@H](Cc1ccc(O)cc1)C(=O)O)[C@@H](C)O` [RH5_192] (H-SIYHKSSTY-OH): the “IC50 (nM), in vitro HLA binding affinity” value at HLA-A*0101 is on record as “Non-Binder”. The IC50 on HLA-A*0301 (setting [1]) came out at 5930 nM.

`CC[C@H](C)[C@H](NC(=O)[C@H](CC(=O)O)NC(=O)[C@@H]1CCCN1C(=O)[C@H](CC(C)C)NC(=O)[C@@H](NC(=O)[C@@H](N)CO)[C@@H](C)CC)C(=O)N[C@@H](CC(N)=O)C(=O)N[C@@H](CCCCN)C(=O)N[C@@H](CO)C(=O)N[C@@H](CCCCN)C(=O)O` [RIPR_0500] (H-SILPDINKSK-OH): the IC50 on HLA-A*0301 (setting [1]) is 12700 nM.

`CC(C)C[C@H](NC(=O)[C@H](CO)NC(=O)[C@H](CCC(=O)O)NC(=O)[C@@H](NC(=O)[C@@H](NC(=O)[C@H](Cc1ccc(O)cc1)NC(=O)[C@H](CCCCN)NC(=O)[C@H](CC(C)C)NC(=O)[C@@H](N)CCCCN)C(C)C)[C@@H](C)O)C(=O)N[C@@H](CCCCN)C(=O)O` [RIPR_0425] (H-KLKYVTESLK-OH): the IC50 at HLA-A*0301 (setting [1]) was determined as 3340 nM.

For the compound `CC[C@H](C)[C@H](NC(=O)[C@H](CC(=O)O)NC(=O)[C@@H](NC(=O)[C@H](Cc1c[nH]cn1)NC(=O)[C@H](CO)NC(=O)[C@H](CC(C)C)NC(=O)[C@@H](N)CCCNC(=N)N)[C@@H](C)O)C(=O)N[C@@H](Cc1c[nH]cn1)C(=O)N[C@@H](CCCCN)C(=O)O` [EBA175_1214] (H-RLSHTDIHK-OH), the IC50 at HLA-A*0301 (allele A*0301, cell-free competition, fluorescence polarization at 72 hours, Non-binder = no dose-dependent inhibition, read-out: IC50) stood at 1740 nM.

Consider `CC[C@H](C)[C@H](NC(=O)[C@H](CO)NC(=O)[C@H](CC(N)=O)NC(=O)[C@H](Cc1ccc(O)cc1)NC(=O)[C@H](CO)NC(=O)[C@H](CC(C)C)NC(=O)[C@@H](N)Cc1c[nH]cn1)C(=O)N[C@@H](Cc1ccc(O)cc1)C(=O)N[C@@H](Cc1c[nH]cn1)C(=O)N[C@@H](CCCCN)C(=O)O` [RH5_187] (H-HLSYNSIYHK-OH), for which the IC50 at HLA-A*0301 (setting [1]) is 44200 nM.

Consider `CC[C@H](C)[C@H](NC(=O)[C@H](CO)NC(=O)[C@H](CC(N)=O)NC(=O)[C@H](Cc1ccc(O)cc1)NC(=O)[C@H](CO)NC(=O)[C@@H](N)CC(C)C)C(=O)N[C@@H](Cc1ccc(O)cc1)C(=O)N[C@@H](Cc1c[nH]cn1)C(=O)N[C@@H](CCCCN)C(=O)O` [RH5_188] (H-LSYNSIYHK-OH), for which the half-inhibitory concentration (IC50) at HLA-A*0301 (setting [1]) is 3070 nM.

Turning to RTFKKMMDEY [RH5_298], the “IC50 (nM), in vitro HLA binding affinity” value at HLA-A*0101 and at HLA-A*0301 (setting [2]) was “Non-Binder” each time.

For `CC[C@H](C)[C@H](NC(=O)[C@H](Cc1ccc(O)cc1)NC(=O)[C@H](CCC(=O)O)NC(=O)[C@H](CC(=O)O)NC(=O)[C@H](CC(N)=O)NC(=O)[C@H](CC(C)C)NC(=O)[C@@H](N)[C@@H](C)O)C(=O)N[C@H](C(=O)N[C@@H](CO)C(=O)N[C@@H](Cc1ccc(O)cc1)C(=O)O)C(C)C` [CYRPA_285] (H-TLNDEYIVSY-OH), the results for the IC50 on HLA-A*0101 and on HLA-A*0301 (setting [1]) were 213000 nM and 304000 nM, respectively.

Compound `CC[C@H](C)[C@H](NC(=O)[C@@H](N)Cc1ccccc1)C(=O)N[C@@H](CO)C(=O)N[C@@H](CC(=O)O)C(=O)N[C@@H](CC(=O)O)C(=O)N[C@@H](CCCCN)C(=O)N[C@@H](CC(=O)O)C(=O)N[C@@H](CO)C(=O)N[C@@H](CC(C)C)C(=O)N[C@@H](CCCCN)C(=O)O` [AMA1_480K] (H-FISDDKDSLK-OH) had an IC50 against HLA-A*0301 of 697000 nM.

Consider `CC[C@H](C)[C@H](NC(=O)[C@H](CC(N)=O)NC(=O)[C@H](CC(C)C)NC(=O)[C@@H](N)CCCCN)C(=O)N[C@@H](Cc1c[nH]c2ccccc12)C(=O)N[C@@H](CCCNC(=N)N)C(=O)N[C@H](C(=O)N[C@@H](Cc1ccccc1)C(=O)N[C@@H](CCC(N)=O)C(=O)N[C@@H](CCCCN)C(=O)O)[C@@H](C)O` [RH5_443] (H-KLNIWRTFQK-OH), for which the IC50 at HLA-A*0301 (setting [1]) is 2500 nM.

As for `CC(C)C[C@H](NC(=O)[C@H](CC(N)=O)NC(=O)[C@@H](NC(=O)[C@H](CC(C)C)NC(=O)[C@H](CC(C)C)NC(=O)[C@@H](N)CC(C)C)[C@@H](C)O)C(=O)N[C@@H](CC(N)=O)C(=O)N[C@@H](CCCCN)C(=O)N[C@@H](CCCCN)C(=O)O` [RH5_392] (H-LLLTNLNKK-OH), at HLA-A*0301 (setting [1]), the IC50 was found to be 14100 nM.

For NVNFLQYHFK [RH5_141], the “IC50 (nM), in vitro HLA binding affinity” value at HLA-A*0301 (setting [2]) is on record as “Non-Binder”.
